Species: Rattus norvegicus
Assay: DrugMatrix - Regimen: Daily Repeat
Assay type: toxicity, organism-based, Sprague-Dawley
Parameters: regimen Daily Repeat, gender Male, age 6-8 weeks
Conditions: in vivo, sc, route subcutaneous, […]; for ABSOLUTE BASOPHIL / ABSOLUTE EOSINOPHIL / ABSOLUTE LYMPHOCYTE / ABSOLUTE MONOCYTE / ABSOLUTE SEGMENTED NEUTROPHIL / BASOPHIL / EOSINOPHIL / ERYTHROCYTE COUNT / HEMATOCRIT / HEMOGLOBIN / LEUKOCYTE COUNT / LYMPHOCYTE / MEAN CORPUSCULAR HEMOGLOBIN / MEAN CORPUSCULAR HEMOGLOBIN CONCENTRATION / MEAN CORPUSCULAR VOLUME / MONOCYTE / NEUTROPHIL / NUCLEATED RED BLOOD CELLS / PLATELET COUNT: tissue Blood; for ALANINE AMINOTRANSFERASE / ALBUMIN / ALKALINE PHOSPHATASE / ASPARTATE AMINOTRANSFERASE / BLOOD UREA NITROGEN / CARBON DIOXIDE / CHLORIDE / CHOLESTEROL / CREATINE PHOSPHOKINASE / CREATININE / GLUCOSE / LACTATE DEHYDROGENASE / LIPASE / PHOSPHORUS / POTASSIUM / SODIUM / TOTAL BILIRUBIN / TOTAL PROTEIN / URIC ACID: tissue Plasma
[1] = 56 mg/kg, 120 h, dose level High, time 5 day
[2] = 72 h, dose 3.3 mg/Kg, dose level Low, time 3 day
[3] = 120 h, dose 3.3 mg/Kg, dose level Low, time 5 day

In the case of `C[C@]12CCC(=O)C=C1CC[C@@H]1[C@@H]2[C@@H](O)C[C@@]2(C)[C@H]1CC[C@]2(O)C(=O)CO` [HYDROCORTISONE], the “ABSOLUTE BASOPHIL” value [1] is reported as 0 CELLS/uL, the “ABSOLUTE EOSINOPHIL” value [1] is reported as 0 CELLS/uL and the “ABSOLUTE LYMPHOCYTE” value [1] is reported as 1058 CELLS/uL. The “ABSOLUTE MONOCYTE” value [1] was 166.67 CELLS/uL, the “ABSOLUTE SEGMENTED NEUTROPHIL” value [1] was 5575.33 CELLS/uL and the BASOPHIL [1] was 0%. For the same compound, the EOSINOPHIL [1] was 0%, the “ERYTHROCYTE COUNT” value [1] was 6.58 x10E6/uL and the HEMATOCRIT [1] was 40.47%. For the same compound, the HEMOGLOBIN [1] was 15.5 G/DL, the “LEUKOCYTE COUNT” value [1] was 6.8 x10E3/uL and the LYMPHOCYTE [1] was 17%. For the same compound, the “MEAN CORPUSCULAR HEMOGLOBIN” value [1] was 23.6 pg, the “MEAN CORPUSCULAR HEMOGLOBIN CONCENTRATION” value [1] was 38.3 G/DL and the “MEAN CORPUSCULAR VOLUME” value [1] was 61.63 fL. The MONOCYTE [1] was 2.33%, the NEUTROPHIL [1] was 80.67% and the “NUCLEATED RED BLOOD CELLS” value [1] was 0 /100WBC. The “PLATELET COUNT” value [1] was 1367.33 x10E3/uL, the “ALANINE AMINOTRANSFERASE” value [1] was 309 u/L and the ALBUMIN [1] was 4.87 G/DL. For the same compound, the “ALKALINE PHOSPHATASE” value [1] was 497.33 u/L, the “ASPARTATE AMINOTRANSFERASE” value [1] was 475.33 u/L and the “BLOOD UREA NITROGEN” value [1] was 23 mg/dL. For the same compound, the “CARBON DIOXIDE” value [1] was 31.33 mmol/L, the CHLORIDE [1] was 95 MEQ/L and the CHOLESTEROL [1] was 140 mg/dL. For the same compound, the “CREATINE PHOSPHOKINASE” value [1] was 224.67 u/L, the CREATININE [1] was 0.49 mg/dL and the GLUCOSE [1] was 479 mg/dL. For the same compound, the “LACTATE DEHYDROGENASE” value [1] was 701 u/L, the LIPASE [1] was 15 u/L and the PHOSPHORUS [1] was 12.63 mg/dL. For the same compound, the POTASSIUM [1] was 5.83 MEQ/L, the SODIUM [1] was 145.23 MEQ/L and the “TOTAL BILIRUBIN” value [1] was 0.17 mg/dL. For the same compound, the “TOTAL PROTEIN” value [1] was 6.73 G/DL, the “URIC ACID” value [1] was 1.57 mg/dL and the “ABSOLUTE BASOPHIL” value [2] was 0 CELLS/uL. For the same compound, the “ABSOLUTE EOSINOPHIL” value [2] was 0 CELLS/uL, the “ABSOLUTE LYMPHOCYTE” value [2] was 9134.67 CELLS/uL and the “ABSOLUTE MONOCYTE” value [2] was 0 CELLS/uL. For the same compound, the “ABSOLUTE SEGMENTED NEUTROPHIL” value [2] was 898.67 CELLS/uL, the BASOPHIL [2] was 0% and the EOSINOPHIL [2] was 0%. For the same compound, the “ERYTHROCYTE COUNT” value [2] was 5.23 x10E6/uL, the HEMATOCRIT [2] was 33.47% and the HEMOGLOBIN [2] was 13.37 G/DL. The “LEUKOCYTE COUNT” value [2] was 10.03 x10E3/uL, the LYMPHOCYTE [2] was 90.67% and the “MEAN CORPUSCULAR HEMOGLOBIN” value [2] was 25.6 pg. The “MEAN CORPUSCULAR HEMOGLOBIN CONCENTRATION” value [2] was 39.93 G/DL, the “MEAN CORPUSCULAR VOLUME” value [2] was 64.07 fL and the MONOCYTE [2] was 0%. For the same compound, the NEUTROPHIL [2] was 9.33%, the “NUCLEATED RED BLOOD CELLS” value [2] was 0 /100WBC and the “PLATELET COUNT” value [2] was 1185.33 x10E3/uL. For the same compound, the “ALANINE AMINOTRANSFERASE” value [2] was 42.33 u/L, the ALBUMIN [2] was 4.73 G/DL and the “ALKALINE PHOSPHATASE” value [2] was 429 u/L. The “ASPARTATE AMINOTRANSFERASE” value [2] was 94.33 u/L, the “BLOOD UREA NITROGEN” value [2] was 15.67 mg/dL and the “CARBON DIOXIDE” value [2] was 32.67 mmol/L. For the same compound, the CHLORIDE [2] was 101.33 MEQ/L, the CHOLESTEROL [2] was 78.67 mg/dL and the “CREATINE PHOSPHOKINASE” value [2] was 185 u/L. The CREATININE [2] was 0.23 mg/dL, the GLUCOSE [2] was 137.67 mg/dL and the “LACTATE DEHYDROGENASE” value [2] was 131.33 u/L. For the same compound, the LIPASE [2] was 9.67 u/L, the PHOSPHORUS [2] was 12.3 mg/dL and the POTASSIUM [2] was 6.34 MEQ/L. For the same compound, the SODIUM [2] was 150.8 MEQ/L, the “TOTAL BILIRUBIN” value [2] was 0.3 mg/dL and the “TOTAL PROTEIN” value [2] was 6.73 G/DL. The “URIC ACID” value [2] was 0.83 mg/dL, the “ABSOLUTE BASOPHIL” value [3] was 0 CELLS/uL and the “ABSOLUTE EOSINOPHIL” value [3] was 115 CELLS/uL. The “ABSOLUTE LYMPHOCYTE” value [3] was 10473.33 CELLS/uL, the “ABSOLUTE MONOCYTE” value [3] was 38.33 CELLS/uL and the “ABSOLUTE SEGMENTED NEUTROPHIL” value [3] was 1440 CELLS/uL. For the same compound, the BASOPHIL [3] was 0%, the EOSINOPHIL [3] was 1% and the “ERYTHROCYTE COUNT” value [3] was 5.54 x10E6/uL. The HEMATOCRIT [3] was 36.47%, the HEMOGLOBIN [3] was 14.6 G/DL and the “LEUKOCYTE COUNT” value [3] was 12.07 x10E3/uL. For the same compound, the LYMPHOCYTE [3] was 87%, the “MEAN CORPUSCULAR HEMOGLOBIN” value [3] was 26.37 pg and the “MEAN CORPUSCULAR HEMOGLOBIN CONCENTRATION” value [3] was 40.07 G/DL. The “MEAN CORPUSCULAR VOLUME” value [3] was 65.8 fL, the MONOCYTE [3] was 0.33% and the NEUTROPHIL [3] was 11.67%. For the same compound, the “NUCLEATED RED BLOOD CELLS” value [3] was 0 /100WBC, the “PLATELET COUNT” value [3] was 1230 x10E3/uL and the “ALANINE AMINOTRANSFERASE” value [3] was 51.67 u/L. The ALBUMIN [3] was 4.73 G/DL, the “ALKALINE PHOSPHATASE” value [3] was 334.67 u/L and the “ASPARTATE AMINOTRANSFERASE” value [3] was 73 u/L. For the same compound, the “BLOOD UREA NITROGEN” value [3] was 15.33 mg/dL, the “CARBON DIOXIDE” value [3] was 31.33 mmol/L and the CHLORIDE [3] was 104 MEQ/L. For the same compound, the CHOLESTEROL [3] was 66 mg/dL, the “CREATINE PHOSPHOKINASE” value [3] was 123.33 u/L and the CREATININE [3] was 0.18 mg/dL. The GLUCOSE [3] was 160 mg/dL, the “LACTATE DEHYDROGENASE” value [3] was 97.33 u/L and the LIPASE [3] was 9.33 u/L. For the same compound, the PHOSPHORUS [3] was 14.23 mg/dL, the POTASSIUM [3] was 6.63 MEQ/L and the SODIUM [3] was 149.93 MEQ/L. The “TOTAL BILIRUBIN” value [3] was 0.2 mg/dL, the “TOTAL PROTEIN” value [3] was 6.63 G/DL and the “URIC ACID” value [3] was 1.7 mg/dL.
